Results taken from publication PMC9783227, “New Derivatives of the Multi-Stage Active Malaria Box Compound MMV030666 and Their Antiplasmodial Potencies” (Pharmaceuticals, 2022).
Read-outs that look alike come from different tables or passages of the source.

Tests used:
P. falciparum NF54 [1] = test: In vitro microplate assay against P. falciparum NF54 (3H-hypoxanthine incorporation); assay type: cell-based, Plasmodium falciparum; conditions: for IC50: average of four determinations, read-out: PfNF54 IC50
Method: (§1) All newly prepared compounds were tested for their in vitro activity against the chloroquine sensitive strain NF54 of P. falciparum. Cytotoxicity was determined using L-6 cells (rat skeletal myofibroblasts). Chloroquine and podophyllotoxin were used as standards.
The in vitro activity of compounds against erythrocytic stages of the drug sensitive NF54 strain of P. falciparum […] was determined using a ^3H-hypoxanthine incorporation assay. Compounds were dissolved in DMSO at 10 mg/mL and further diluted in medium before adding to parasite cultures that were incubated in RPMI 1640 medium without hypoxanthine, supplemented with HEPES (5.94 g/L), NaHCO3 (2.1 g/L), neomycin (100 U/mL), AlbumaxR (5 g/L) and washed human red blood cells A+ at 2.5% haematocrit (0.3% parasitaemia). Serial drug dilutions of eleven 3-fold dilutions steps covering a range from 100 to 0.002 µg/mL were prepared. The 96-well plates were incubated in a humidified atmosphere at 37 °C; 4% CO2, 3% O2, 93% N2. After 48 h of incubation time, 0.05 mL of ^3H-hypoxanthine (=0.5 µCi) was added to each well of the plate. The plates were incubated for further 24 h under the same conditions. Plates were then harvested using a Betaplate^TM cell harvester (Wallac, Zurich, Switzerland). Red blood cells were transferred onto a glass fiber filter and then washed with distilled water. The dried filters were inserted into a plastic foil with 10 mL of scintillation fluid and counted in a Betaplate^TM liquid scintillation counter (Wallac, Zurich, Switzerland). IC50 values were calculated from sigmoidal inhibition curves by linear regression using Microsoft Excel. Chloroquine (Sigma C6628) was used as control.

in vitro = conditions: rat
Method: as §1
(§2) The cytotoxicity assays were performed using 96-well microtiter plates, each well containing 4000 L-6 cells (a primary cell line derived from rat skeletal myofibroblasts, ATCC CRL-1458^TM) in 0.1 mL of RPMI 1640 medium supplemented with 1% glutamine (200 mM) and 10% fetal bovine serum. Serial drug dilutions of eleven 3-fold dilution steps covering a range from 100 to 0.002 µg/mL were prepared. After 70 h of incubation, the plates were inspected under an inverted microscope to assure growth of the controls and sterile conditions. Then, 0.01 mL resazurin solution (resazurin, 12.5 mg in 100 mL double-distilled water) was added to each well and the plates were incubated for another 2 h. The plates were read with a Spectramax Gemini XS microplate fluorometer (Molecular Devices Cooperation, Sunnyvale, CA, USA) using an excitation wavelength of 536 nm and an emission wavelength of 588 nm. IC50 values were calculated by linear regression from the sigmoidal dose inhibition curves using SoftmaxPro software (Molecular Devices Cooperation, Sunnyvale, CA, USA). Podophyllotoxin (Sigma P4405) was used as control.

[2] = Solubility in DMSO and methanol (PAMPA stock solutions); assay type: physicochemical
Method: Permeability is defined using hydrochlorothiazide (Pe = 0.09 × 10^−6 cm/s) and caffeine (Pe = 8.00 × 10^−6 cm/s) as standards.
With the high-throughput PAMPA the newly synthesized compounds were tested for their passive permeability through cell membranes without the influence of efflux pumps or transporter proteins. The assay was performed using a Corning® Gentest^TM Pre-coated PAMPA Plate System with 96-well polystyrene plates. The bottom of the acceptor plate consists of a porous membrane, whereby the pores are lined with a lipid-oil-lipid triple layer. Stock solutions of each test compound at 10 mM were prepared in DMSO or methanol and diluted with phosphate-buffered saline (PBS at a pH of 7.4) to a final concentration of 200 µM. Hydrochlorothiazide (Pe = 0.9 nm/s) and caffeine (Pe = 80 nm/s) were used as standards. The donor plate (bottom plate) was filled with the compound solutions, whereby all compounds were tested in quadruplicates. Each well of the acceptor plate (top plate) was filled with PBS buffer. Donor and acceptor plates were combined and incubated at room temperature for 5 h. After that, the plates were separated and 150 µL of each well of both plates were transferred to 96-well UV plates (Greiner Bio-One). Absorption at different wavelengths covering a range from 200 to 300 nm was measured using a SpectraMax M3 UV plate reader. By measuring serial dilutions of five dilution steps covering a range from 200 to 12.5 µM, a calibration curve was prepared. The plates were analyzed at the wavelength where the R^2 value of the calibration curve was higher than 0.99 [41]. […] (2) cequ=[cD(t)∗VD+cA(t)∗VA]/(VD+VA) where: • VD—donor well volume (0.3 mL); • VA—acceptor well volume (0.2 mL); • cA(t)—acceptor well compound concentration at time t; • cD(t)—donor well compound concentration at time t.

L-6 cells [3] = test: in vitro
Method: as §1, §2

P. falciparum NF54 [4] = tested on: P. falciparum NF54; parameters: method as in PMID 34832891; conditions: comparison compounds 1-4 of the first series, cited from earlier work; for IC50: read-out: PfNF54 IC50
L-6 cells [5] = tested on: L-6 cells; parameters: method as in PMID 34832891; conditions: comparison compounds 1-4 of the first series; read-out: Cytotoxicity L-6 Cells IC50; cited from earlier work
[6] = Parallel artificial membrane permeability assay (PAMPA); conditions: PAMPA, PBS pH 7.4, 200 µM, 5 h, room temperature
Method: The parallel artificial membrane permeability assay (PAMPA) is a fast and easy high-throughput assay to determine passive permeability of compounds through semi-permeable membranes (for example the blood-brain-barrier) without the influence of efflux pumps or transporter molecules.
With the high-throughput PAMPA the newly synthesized compounds were tested for their passive permeability through cell membranes without the influence of efflux pumps or transporter proteins. The assay was performed using a Corning® Gentest^TM Pre-coated PAMPA Plate System with 96-well polystyrene plates. The bottom of the acceptor plate consists of a porous membrane, whereby the pores are lined with a lipid-oil-lipid triple layer. Stock solutions of each test compound at 10 mM were prepared in DMSO or methanol and diluted with phosphate-buffered saline (PBS at a pH of 7.4) to a final concentration of 200 µM. […] The donor plate (bottom plate) was filled with the compound solutions, whereby all compounds were tested in quadruplicates. Each well of the acceptor plate (top plate) was filled with PBS buffer. Donor and acceptor plates were combined and incubated at room temperature for 5 h. After that, the plates were separated and 150 µL of each well of both plates were transferred to 96-well UV plates (Greiner Bio-One). Absorption at different wavelengths covering a range from 200 to 300 nm was measured using a SpectraMax M3 UV plate reader. […] The plates were analyzed at the wavelength where the R^2 value of the calibration curve was higher than 0.99 [41]. […] (2) cequ=[cD(t)∗VD+cA(t)∗VA]/(VD+VA) where: • VD—donor well volume (0.3 mL); • VA—acceptor well volume (0.2 mL); • cA(t)—acceptor well compound concentration at time t; • cD(t)—donor well compound concentration at time t.
Recovery of compounds from donor and acceptor wells (mass retention) was calculated as shown in the equation below. Data were only accepted when recovery exceeded 70%. (3) R=1−[cD(t)∗VD+cA(t)∗VA]/(c0∗VD) where: • R—mass retention (%); • VD—donor well volume (0.3 mL); • VA—acceptor well volume (0.2 mL); • cA(t)—acceptor well compound concentration at time t; • cD(t)—donor well compound concentration at time t; • c0—initial donor well compound concentration (200 µM).

[7] = Plasmodium falciparum, NF54, chloroquine sensitive strain NF54, erythrocytic stages
[8] = reason why permeability could not be detected

Compound | IC50 (P. falciparum NF54 [1]; [7]) [µM] | IC50 at 72 h (in vitro) [µM] | solubility in DMSO and methanol [2, 8] | S.I. = IC50 (Cyt.)/IC50 (PfNF54) (P. falciparum NF54 [4]) | IC50 (P. falciparum NF54 [4]) [µM] | IC50 (L-6 cells [5]) [µM] | also measured
CC(C)(C)C(=O)N1CCN(c2ccc(NC(=O)c3cccc([N+](=O)[O-])c3Oc3ccc(F)cc3)cc2)CC1 [Compound 44, N-{4-[4-(2,2-Dimethylpropanoyl)piperazin-1-yl]phenyl}-2-(4-fluorophenoxy)-3-nitrobenzamid] | 1.5 | 144 | insufficient solubility | – | – | – | –
tert-Butyl 4-{4-[3-fluoro-2-(4-fluorophenoxy)benzamido]phenyl}piperazin-1-carboxylate [Compound 27] | – | – | – | – | – | – | S.I. = IC50 (Cyt.)/IC50 (PfNF54) (P. falciparum NF54 [1]; L-6 cells IC50 / PfNF54 IC50): 237.5; IC50 (P. falciparum NF54 [1]; chloroquine sensitive strain NF54, erythrocytic stages): 0.65 µM; IC50 (L-6 cells [3]): 154 µM; solubility in DMSO and methanol [2]: insufficient solubility
CC(C)(C)C(=O)N1CCN(c2ccccc2NC(=O)c2cccc(C(F)(F)F)c2Oc2ccc(F)cc2)CC1 [Compound 3] | – | – | – | 299.7 | 0.617 | 185 | –
CC(C)(C)OC(=O)N1CCN(c2ccccc2NC(=O)c2ccccc2Oc2ccc(F)cc2)CC1 [Compound 26, tert-Butyl 4-{2-[2-(4-fluorophenoxy)benzamido]phenyl}piperazine-1-carboxylate] | 0.627 | 154 | insufficient solubility | – | – | – | –
CC(C)(C)OC(=O)N1CCN(c2ccccc2NC(=O)c2cccc(C(F)(F)F)c2Oc2ccc(F)cc2)CC1 [Compound 1, reference compound] | – | – | – | 316.9 | 0.413 | 131 | Pe [6]: 2.37 10^−6 cm/s
CC(C)(C)C(=O)N1CCN(c2ccccc2NC(=O)c2ccccc2Oc2ccc(F)cc2)CC1 [Compound 33, N-{2-[4-(2,2-Dimethylpropanoyl)piperazin-1-yl]phenyl}-2-(4-fluorophenoxy)benzamid] | 2.15 | 38.3 | insufficient solubility | – | – | – | –
CC(C)(C)OC(=O)N1CCN(c2ccc(NC(=O)c3cccc(C(F)(F)F)c3Oc3ccc(F)cc3)cc2)CC1 [Compound 2] | – | – | – | 461.0 | 0.269 | 124 | –
CC(C)(C)C(=O)N1CCN(c2ccc(NC(=O)c3cccc(C(F)(F)F)c3Oc3ccc(F)cc3)cc2)CC1 [Compound 4] | – | – | – | 171.9 | 0.58 | 99.6 | –
CC(C)(C)OC(=O)N1CCN(c2ccc(NC(=O)c3cccc(F)c3Oc3ccc(F)cc3)cc2)CC1 [Compound 37, tert-Butyl 4-{4-[3-fluoro-2-(4-fluorophenoxy)benzamido]phenyl}piperazine-1-carb-oxylate] | 4.07 | 35.3 | – | – | – | – | Papp at 5 h, 200 µM ([6]; pH 7.4, Pe): 0.7 ×10⁻⁶ cm/s
